Results taken from patent US12624018B1, “Inhibitors of RIPK2 and medical uses thereof” (Odyssey Therapeutics, Inc., priority 2022, dated 2026).
pIC50: −log10 of the molar value.

What was measured:
[1] = biological target: T1, RIPK2 enzyme (Homo sapiens, UniProt O43353); assay: RIPK2 inhibition (ADP-Glo Kinase Assay); type: biochemical; conditions: RIPK2 5 nM, ATP 150 μM, MBP substrate, read-out: RIPK2 IC50
T1 construct: purchased Carna 09-128
How it was run: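 Human RIPK2 (5 nM) preincubated with compound 30 min at room temperature in 50 mM HEPES pH 7.5, 10 mM MgCl2, 2 mM DTT, 1 mM EGTA, 0.01% Brij-35, 0.05% BSA; native swine MBP as substrate. ADP formed quantified by ADP-Glo luminescence; percent inhibition relative to DMSO and no-enzyme controls.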

[2] = biological target: T2, RIPK2 and XIAP protein-protein interaction (Homo sapiens, UniProt O43353); assay: Inhibition of the interaction of RIPK2 with XIAP (NanoBRET in HEK293T cells); type: cell-based; conditions: RIPK2 HaloTag / XIAP NanoLuc, read-out: NanoBRET Scaffolding IC50
T2 construct: the N-terminus of full-length RIPK2 was appended with the HaloTag fusion protein; expressed in transfected cells; host or cells: HEK293T
How it was run: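 HEK293T cells transiently co-transfected with HaloTag-RIPK2 (N-terminal) and XIAP-NanoLuc (C-terminal) full-length fusions, grown 24 h at 37° C. in Opti-MEM with 4% FBS. Compounds tested as 10-point 3-fold dilutions; NanoBRET ratio taken as 618 nm acceptor over 460 nm donor emission.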

[3] = tested on: RIPK2 activity in vivo, as measured by plasma levels of cytokine MCP-1; assay: In vivo inhibition of monocyte chemoattractant protein-1 (MCP-1), acute mouse MDP challenge; conditions: female C57BL/6 mice, plasma 2 h after MDP
Protocol: The compounds of the disclosure were tested for their ability to inhibit RTPK2 activity in vivo, as measured by plasma levels of cytokine MCP-1. C57BL/6 mice were dosed orally with the compounds of the disclosure one hour prior to intra-peritoneal administration of muramyldipeptide (MDP), a NOD2 agonist. Intraperitoneal (i.p.) injection of MDP in mice induces an increase in circulating levels of proinflammatory cytokines, such as MCP-1, in a RIPK2-dependent manner. This acute mouse MDP challenge represents a screening model to measure the ability of compounds to inhibit RIPK2 in vivo.
Materials: Female C57BL/6 mice (6-13 weeks of age) were purchased from the Jackson Laboratory. All mice were maintained under a 12 h light/dark cycle and had food and water ad libitum. Muramyldipeptide (MDP) was purchased from Invivogen (catalog No. tlrl-mdp; lot No. 6231-43-02). Mouse MCP-1 was measured using U-PLEX MSD kit (Meso Scale Discovery (MSD), catalog No. K15069M-2). Carboxymethyl cellulose was purchased from Sigma-Aldrich (catalog No. C5678-500 ml), Tween80 was purchased from Sigma-Aldrich (catalog No. P1754-500 ml), (Hydroxypropyl)-β-cyclodextrin (HP-β-CD) was purchased from Sigma-Aldrich (catalog No. C332607-500G), PBS was purchased from Thermo Fisher Scientific (catalog No. 14190250).
The vehicle was prepared by mixing carboxymethyl cellulose and Tween80 to achieve a final solution of 0.5% CMC or 20% HP-β-CD in water. The compounds of the disclosure were weighed out and mixed with the vehicle to yield final working suspensions. Working suspensions of the compounds were prepared once at the beginning of the study, and vortexed and sonicated prior to each dosing to ensure the material was in fine suspension.
Mice were acclimated to the facility for at least 5 days before the start of the study. On day 0, mice were weighed and assigned to groups in a balanced manner to achieve similar average weight across the groups at the start of the study. On day 0, hour −1 (1 hours before MDP injection), all mice were given a single p.o. dose with vehicle or a compound of the disclosure. At hour 0 (1 hour after dosing), mice were injected intraperitoneally (IP) with 8 mpk MDP in PBS. Two hours after MDP injection (3 hours after drug treatment), blood was collected via cardiac puncture for all mice into EDTA microtainer collection tubes. Plasma was prepared from blood and stored at −80° C.
MCP-1 levels in mouse plasma were measured using U-PLEX MSD kit according to manufacturer's instructions. A single analysis was performed for each sample. Concentrations were determined relative to a standard calibration curve, and total analyte levels in pg/mL.
The MCP-1 data in pg/mL were normalized in GraphPad Prism 9.2 using the normalize function and entering the 0% and 100% inhibition control groups for the study. 0% inhibition was defined as mean MCP-1 pg/mL in MDP vehicle group, and 100% inhibition was defined as mean MCP-1 pg/mL in the unstimulated vehicle group.

[4] = single p.o. dose 3 mg/kg 1 h before i.p. MDP 8 mpk
[5] = single p.o. dose 10 mg/kg 1 h before i.p. MDP 8 mpk

T2 sequence (O43353 whole entry, the tested form may be a part): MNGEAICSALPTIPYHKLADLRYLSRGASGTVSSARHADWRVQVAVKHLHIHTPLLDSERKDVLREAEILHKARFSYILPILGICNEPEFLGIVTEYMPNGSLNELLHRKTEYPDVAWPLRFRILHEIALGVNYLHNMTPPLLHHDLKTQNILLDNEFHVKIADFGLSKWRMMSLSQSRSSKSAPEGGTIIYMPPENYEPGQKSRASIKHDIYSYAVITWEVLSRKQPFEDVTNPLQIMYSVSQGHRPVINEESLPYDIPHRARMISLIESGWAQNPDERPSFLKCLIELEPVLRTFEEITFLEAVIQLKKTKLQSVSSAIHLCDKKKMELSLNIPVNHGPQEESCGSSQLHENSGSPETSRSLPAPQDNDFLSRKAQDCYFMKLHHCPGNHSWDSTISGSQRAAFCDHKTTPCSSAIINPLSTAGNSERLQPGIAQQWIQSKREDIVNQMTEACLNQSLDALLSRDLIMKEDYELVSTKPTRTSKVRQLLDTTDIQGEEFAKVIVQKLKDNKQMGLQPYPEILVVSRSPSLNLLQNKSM
T1 sequence (O43353 1-299 limits assumed): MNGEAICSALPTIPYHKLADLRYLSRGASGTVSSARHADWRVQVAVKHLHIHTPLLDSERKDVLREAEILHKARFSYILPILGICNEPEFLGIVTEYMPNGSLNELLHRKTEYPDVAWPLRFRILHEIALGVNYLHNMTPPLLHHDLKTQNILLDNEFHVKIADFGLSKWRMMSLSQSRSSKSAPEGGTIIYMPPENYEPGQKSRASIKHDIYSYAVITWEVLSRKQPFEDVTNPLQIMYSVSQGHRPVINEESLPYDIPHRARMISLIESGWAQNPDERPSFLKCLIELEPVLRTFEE

Structure (SMILES): Cc1c(Oc2ccnc3ccc(S(C)(=O)=O)cc23)ccc(CC(=O)Nc2cnn(C(C)(C)C)c2)c1F [Compound 91, N-(1-(tert-butyl)-1H-pyrazol-4-yl)-2-(2-fluoro-3-methyl-4-((6-(methylsulfonyl)quinolin-4-yl)oxy)phenyl)acetamide]
- pIC50 [1]: > 8.60
- pIC50 [2]: 7.92
- % MCP-1 inhibition [3, 4]: 99%

Structure (SMILES): CNC(=O)c1ccc2nccc(Oc3cc(F)c(CC(=O)Nc4cnn(C(C)(C)C)c4)cc3C)c2c1 [Compound 360, 4-(4-(2-((1-(tert-butyl)-1H-pyrazol-4-yl)amino)-2-oxoethyl)-5-fluoro-2-methylphenoxy)-N-methylquinoline-6-carboxamide]
- pIC50 [1]: > 8.60
- pIC50 [2]: 8.10
- % MCP-1 inhibition [3, 5]: 93%

Structure (SMILES): Cc1cc(CC(=O)Nc2cnn(C(C)(C)C)c2)c(F)cc1Oc1ccnc2ccc(C(N)=O)cc12 [Compound 359, 4-(4-(2-((1-(tert-butyl)-1H-pyrazol-4-yl)amino)-2-oxoethyl)-5-fluoro-2-methyl-phenoxy) quinoline-6-carboxamide]
- pIC50 [1]: > 8.60
- pIC50 [2]: 7.85
- % MCP-1 inhibition [3, 5]: 88%

Structure (SMILES): CCS(=O)(=O)c1ccc2nccc(Oc3ccc(CC(=O)Nc4cnn(C(C)(C)C)c4)cc3C)c2c1 [Compound 99, N-(1-(tert-butyl)-1H-pyrazol-4-yl)-2-(4-((6-(ethylsulfonyl)quinolin-4-yl)oxy)-3-methylphenyl)acetamide]
- pIC50 [1]: > 8.60
- pIC50 [2]: 7.82
- % MCP-1 inhibition [3, 4]: 111%

Structure (SMILES): Cc1cc(CC(=O)Nc2cnn(C(C)(C)C)c2)ccc1Oc1ccnc2ccc(S(C)(=O)=O)cc12 [Compound 86, N-(1-(tert-butyl)-1H-pyrazol-4-yl)-2-(3-methyl-4-((6-(methylsulfonyl)quinolin-4-yl)oxy)phenyl)acetamide]
- pIC50 [1]: > 8.60
- pIC50 [2]: 7.92
- % MCP-1 inhibition [3, 4]: 101%

Structure (SMILES): Cc1cc(CC(=O)Nc2cnn(C(C)(C)C)c2)ccc1Oc1ccnc2ccc(OC3CCNCC3)cc12 [Compound 83, N-(1-(tert-butyl)-1H-pyrazol-4-yl)-2-(3-methyl-4-((6-(piperidin-4-yloxy)quinolin-4-yl)oxy)phenyl) acetamide]
- pIC50 [1]: > 8.60
- pIC50 [2]: 7.54
- % MCP-1 inhibition [3, 4]: no effect

Structure (SMILES): CC(C)(C)n1cc(NC(=O)Cc2ccc(Oc3ccnc4ccc(S(C)(=O)=O)cc34)cc2F)cn1 [Compound 38, N-(1-(tert-butyl)-1H-pyrazol-4-yl)-2-(2-fluoro-4-((6-(methylsulfonyl)quinolin-4-yl)oxy)phenyl)acetamide]
- pIC50 [1]: > 8.60
- pIC50 [2]: 7.27
- % MCP-1 inhibition [3, 5]: 99%

Structure (SMILES): Cc1cc(CC(=O)Nc2cnn(C(C)(C)C)c2)c(F)cc1Oc1ccnc2ccc(S(C)(=O)=O)cc12 [Compound 113, N-(1-(tert-butyl)-1H-pyrazol-4-yl)-2-(2-fluoro-5-methyl-4-((6-(methylsulfonyl)quinolin-4-yl)oxy)phenyl)acetamide]
- pIC50 [1]: > 8.60
- pIC50 [2]: 7.48
- % MCP-1 inhibition [3, 5]: 82%

Structure (SMILES): Cc1cc(CC(=O)Nc2cnn(C(C)(C)C)c2)cc(C)c1Oc1ccnc2cc(F)c(C(N)=O)cc12 [Compound 581, 4-(4-(2-((1-(tert-butyl)-1H-pyrazol-4-yl)amino)-2-oxoethyl)-2,6-dimethylphenoxy)-7-fluoroquinoline-6-carboxamide]
- pIC50 [1]: > 8.60
- pIC50 [2]: 7.21
- % MCP-1 inhibition [3, 4]: 75%
